According to US11813276B2, “Compositions and methods for the treatment of AUD” (University of Southern California, priority 2020, dated 2023):

Assays:
[1] = system: mice; assay: Earlier ethanol drinking studies with avermectins given alone; assay type: in vivo; conditions: for time from administration to time of significant reduction of ethanol intake: avermectin alone
Description: The altered function or expression of central nervous system (CNS) genes has long been considered a significant factor in contributing to the behavioral phenotype of alcoholism. By profiling gene expression in rodent strains undergoing multiple drinking paradigms, researchers have begun to identify potential candidate genes and pathways that may impart novel mechanistic information that drives the neurobiology of alcoholism.

[2] = system: mice; conditions: cited from earlier work

Row | Structure (SMILES) | time from administration to time of significant reduction of ethanol intake [1] | toxicity or addictive liabilities ([1]; mouse, in vivo) | effect of chronic administration on the reduction of ethanol intake (tolerance) ([1]; chronic administration) | toxicity or addictive liabilities ([1]; chronic administration, ethanol drinking studies) | voluntary ethanol intake ([2]; IVM alone, doses between 2.5 mg/kg and 10 mg/kg, mice models (Yardlet et al., 2012)) | ethanol intake ([2]; male and female mice, avermectin alone)
1 | CO/N=C1\C[C@]2(C[C@@H]3C[C@@H](C/C=C(\C)C[C@@H](C)/C=C/C=C4\CO[C@@H]5[C@H](O)C(C)=C[C@@H](C(=O)O3)[C@]45O)O2)O[C@H](/C(C)=C/C(C)C)[C@H]1C [MOX, moxidectin] | 4 h | nor was any measured or observed obvious increase in toxicity or addictive liabilities | – | – | – | –
2 | CC[C@H](C)[C@H]1O[C@]2(CC[C@@H]1C)C[C@@H]1C[C@@H](C/C=C(\C)[C@@H](O[C@H]3C[C@H](OC)[C@@H](O[C@H]4C[C@H](OC)[C@@H](O)[C@H](C)O4)[C@H](C)O3)[C@@H](C)/C=C/C=C3\CO[C@@H]4[C@H](O)C(C)=C[C@@H](C(=O)O1)[C@]34O)O2 [IVM, ivermectin] | 8 h | – | did not significantly alter the reduction of ethanol intake | nor was any measured or observed obvious increase in toxicity or addictive liabilities | significant reduction in the voluntary ethanol intake | significantly reduced ethanol intake
